Data published in patent US20200407370A1, “PEPTIDYLARGININE DEIMINASE INHIBITOR AND USE THEREOF” (Nanjing Transthera Biosciences Co., Ltd., priority 2018, published 2020).
Like-named read-outs stand apart in the source and are kept apart here.

Columns and labels:
[1] = Pharmacokinetics (PK) of the compound in rats; assay type: in vivo; settings: rat, plasma, SD rats; for bioavailability / AUC(0-t) / clearance / Vd / half-life: n = 3; for bioavailability: read-out: F (absolute bioavailability); for clearance: read-out: Cl_obs iv (clearance) (converted); for Vd: read-out: Vz_obs iv (apparent volume of distribution); for Tmax: n = 3, median, read-out: Tmax po (time to maximum plasma concentration)
Description: Experimental Example 3: Pharmacokinetics (PK) of the Compound in Rats
The test compound was dissolved in a mixture of 5% v/v DMSO+20% v/v (30% v/v solutol (polyethylene glycol-15 hydroxystearate purchased from BASF, batch no. 84773247G0))+75% v/v brine to prepare a solution, which was then administered to SD rats by oral gavage at a dose of 5.0 mg/kg. Blood samples were collected at 15 min, 30 min, 1 h, 2 h, 4 h, 6 h, 8 h and 24 h.
The test compound was dissolved in a mixture of 5% v/v DMSO+20% v/v (30% v/v solutol)+75% v/v brine to prepare a solution, which was administered to SD rats by intravenous bolus at a dose of 1 mg/kg. Blood samples were collected at 5 min, 15 min, 30 min, 1 h, 2 h, 4 h, 6 h, 8 h and 24 h.
The animals were fixed, with tails warmed in a water bath 10 min before each sampling time point. About 100 μL of blood was collected via the tail vein, and the blood samples were collected in anticoagulation tubes containing EDTA-K2. The blood samples were centrifuged at 8,000 rpm for 6 min at 4° C. to give plasma samples within 30 min after collection. The plasma samples were stored in a refrigerator at −80° C. before test.
The sample was taken out from the −80° C. refrigerator, and vortexed for 5 min after naturally thawed at room temperature. 20 μL of plasma sample was pipetted into a 1.5 mL centrifuge tube, and 200 μL of 100 ng/mL internal standard working solution (a solution of tolbutamide in methanol) was added. The resulting mixture was mixed, vortexed for 5 min, and then centrifuged at 12,000 rpm for 5 min. 50 μL of the supernatant was pipetted into a 96-well plate with 150 μL of water per well, and the plate was vortexed for 5 min before LC-MS/MS analysis.
The concentration was calculated by Analyst 1.6.3 from AB Sciex. Parameters such as mean, standard deviation and coefficient of variation (excluding those output directly by Analyst 1.6.3) were calculated by Microsoft Excel. PK parameters were calculated by Pharsight Phoenix 6.1 software NCA (Tmax was in median).

[2] = target: T1, Peptidylarginine deiminase 4 (PAD4) (Homo sapiens, UniProt Q9UM07); test: Assay of enzyme-inhibiting activity (PAD4, FAM-AcH4(1-5) peptide, Caliper detection); assay type: biochemical; settings: 10 nM PAD4, 5 μM peptide, 0.1 mM Ca2+, pH 8.0
T1 construct: purchased Cayman 10500
T1 sequence (Q9UM07 whole entry): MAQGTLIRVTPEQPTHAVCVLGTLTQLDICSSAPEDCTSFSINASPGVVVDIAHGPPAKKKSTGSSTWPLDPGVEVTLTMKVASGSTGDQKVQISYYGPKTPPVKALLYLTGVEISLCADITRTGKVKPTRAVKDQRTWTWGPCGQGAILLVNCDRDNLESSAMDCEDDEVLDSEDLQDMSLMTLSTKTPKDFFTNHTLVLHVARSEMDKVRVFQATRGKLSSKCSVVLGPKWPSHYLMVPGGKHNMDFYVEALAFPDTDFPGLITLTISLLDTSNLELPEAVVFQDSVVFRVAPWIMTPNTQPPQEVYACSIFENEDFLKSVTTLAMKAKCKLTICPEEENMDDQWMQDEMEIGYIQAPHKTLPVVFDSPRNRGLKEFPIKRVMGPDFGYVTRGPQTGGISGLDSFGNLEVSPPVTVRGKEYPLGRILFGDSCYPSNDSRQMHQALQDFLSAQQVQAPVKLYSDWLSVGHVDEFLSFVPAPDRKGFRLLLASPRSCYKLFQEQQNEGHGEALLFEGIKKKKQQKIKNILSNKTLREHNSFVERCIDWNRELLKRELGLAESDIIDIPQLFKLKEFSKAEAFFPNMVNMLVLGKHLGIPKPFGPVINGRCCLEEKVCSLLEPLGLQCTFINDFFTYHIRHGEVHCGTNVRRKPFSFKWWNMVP
Description: Experimental Example 1: Assay of Enzyme-Inhibiting Activity of Compound
Sample: The compound disclosed herein prepared according to exemplary methods.
Peptidylarginine deiminase 4 (PAD4): Cayman, Cat. No. 10500, Lot. No. 0519694;
Carboxyfluorescein-labeled peptide (Peptide FAM-AcH4 (1-5)): GL Biochem, Cat. No. 0200046, Lot. No. P161110-TL545976;
An appropriate amount of the compound to be assayed was dissolved in DMSO to 10 mM. An appropriate amount of 10 mM mother liquor of the compound to be assayed was diluted to 1.5 mM with DMSO, and the solution was then serially diluted 3-fold with DMSO to give 50× concentrations of gradient compound solutions. Finally, 10-fold dilution was carried out with reaction buffer (an aqueous solution of 100 mM HEPES (2-[4-(2-hydroxyethyl)piperazin-1-yl]ethanesulfonic acid) containing 0.01% v/v Triton, pH 8.0) to give 5× concentrations of gradient compound solutions (150 μM, 50 μM, 16.667 μM, 5.556 μM, 1.852 μM, 0.617 μM, 0.206 μM, 0.069 μM, 0.023 μM, and 0.008 μM).
1) Reaction buffer: aqueous solution of 100 mM HEPES (2-[4-(2-hydroxyethyl)piperazin-1-yl]ethanesulfonic acid) containing 0.01% v/v Triton, pH 8.0;
2) Stop solution: aqueous solution of 100 mM HEPES (2-[4-(2-hydroxyethyl)piperazin-1-yl]ethanesulfonic acid) containing 0.015% w/v Brij-35, 0.2% v/v Coating Reagent (coating solution) #3 (PE, part no. 760050) and 50 mM EDTA, pH 8.0;
3) 2.5× enzyme solution: An appropriate amount of PAD4 was diluted to 2.5× (final concentration: 10 nM) with reaction buffer;
4) 2.5× polypeptide solution: An appropriate amount of carboxyfluorescein -labeled peptide (FAM-AcH4(1-5) peptide) and CaCl2) solution was diluted to 2.5× (the final concentration of polypeptide: 5 μM, the final concentration of Ca^2+: 0.1 mM) with reaction buffer.
5 μL of 5× compound solutions or solvents with different concentrations were added to a 384-well plate, 10 μL of 2.5× enzyme solution was then added, and the plate was incubated at room temperature for 10 min. 10 μL of 2.5× polypeptide solution was then added to each well, and the plate was incubated at 28° C. for a certain period of time. 25 μL of stop solution was added to stop reaction. Caliper was used for detection. The inhibition rate was calculated according to the following formula:
Inhibition percentage=(max−transformation)/(max−min)*100.
“max” denotes DMSO control; and “min” denotes low control.

[3] = IV 1 mg/kg, read-out: AUClast iv (area under concentration-time curve 0-24 h)
[4] = IV 1 mg/kg, read-out: tz1/2 iv (terminal half-life) (converted)
[5] = PO 5 mg/kg, read-out: AUClast po (area under concentration-time curve 0-24 h)
[6] = PO 5 mg/kg, read-out: tz1/2 po (terminal half-life) (converted)

Row | SMILES | bioavailability ([1]; IV 1 mg/kg, PO 5 mg/kg) | AUC(0-t) [1, 3] | clearance ([1]; IV 1 mg/kg) | Vd ([1]; IV 1 mg/kg) | half-life [1, 4] | Tmax ([1]; PO 5 mg/kg) | AUC(0-t) [1, 5] | IC50 [2] | half-life [1, 6]
1 | CCn1c(-c2nc3cc(C(=O)N4CCC[C@@H](N)C4)cc(OC)c3n2C)cc2ccsc21 [Compound 3, (R)-(3-aminopiperidin-1-yl)(2-(6-ethyl-6H-thieno[2,3-b]pyrrol-5-yl)-7-methoxy-1-methyl-1H-benzo[d]imidazol-5-yl)methanone] | 15.6% | 1200 ng·h/mL | 13.2 mL/min/kg | 11.2 L/kg | 9.97 h | 6 h | 934 ng·h/mL | 200 nM | 
2 | CCn1c(-c2nc3cc(C(=O)N4CCC[C@@H](N)C4)cc(OC)c3n2C)cc2cc(C)sc21 [Compound 9, (R)-(3-aminopiperidin-1-yl)(2-(6-ethyl-2-methyl-6H-thieno[2,3-b]pyrrol-5-yl)-7-methoxy-1-methyl-1H-benzo[d]imidazol-5-yl)methanone] | 41.8% | 303 ng·h/mL | 43.7 mL/min/kg | 22 L/kg | 5.96 h | 6 h | 633 ng·h/mL | 110 nM | 6.33 h
3 | COc1cc(C(=O)N2CCC[C@@H](N)C2)cc2nc(-c3cc4ccsc4n3CC3CC3)n(C)c12 [Compound 18, (R)-(3-aminopiperidin-1-yl)(2-(6-(cyclopropylmethyl)-6H-thieno[2,3-b]pyrrol-5-yl)-7-methoxy-1-methyl-1H-benzo[d]imidazol-5-yl)methanone] | 46.6% | 1010 ng·h/mL | 16.7 mL/min/kg | 5.64 L/kg | 3.92 h | 6 h | 2360 ng·h/mL | 36 nM | 3.96 h
4 | COc1cc(C(=O)N2CCC[C@@H](N)C2)cc2nc(-c3cc4ccsc4n3CC(C)C)n(C)c12 [Compound 20, (R)-(3-aminopiperidin-1-yl)(2-(6-isobutyl-6H-thieno[2,3-b]pyrrol-5-yl)-7-methoxy-1-methyl-1H-benzo[d]imidazol-5-yl)methanone] | 71.2% | 3160 ng·h/mL | 5 mL/min/kg | 2.86 L/kg | 6.94 h | 8 h | 11200 ng·h/mL | 58 nM | 13.2 h
5 | COc1cc(C(=O)N2CCC[C@@H](N)C2)cc2nc(-c3cc4ccsc4n3CC(F)(F)F)n(C)c12 [Compound 21, (R)-(3-aminopiperidin-1-yl)(7-methoxy-1-methyl-2-(6-(2,2,2-trifluoroethyl)-6H-thieno[2,3-b]pyrrol-5-yl)-1H-benzo[d]imidazol-5-yl)methanone] | 33.3% | 772 ng·h/mL | 15.3 mL/min/kg | 8.73 L/kg | 6.93 h | 8 h | 1290 ng·h/mL | 55 nM | 4.7 h
6 | COc1cc(C(=O)N2CCC[C@@H](N)C2)cc2nc(-c3cc4ccsc4n3CC3CCC3)n(C)c12 [Compound 22, (R)-(3-aminopiperidin-1-yl)(2-(6-(cyclobutylmethyl)-6H-thieno[2,3-b]pyrrol-5-yl)-7-methoxy-1-methyl-1H-benzo[d]imidazol-5-yl)methanone] | 35% | 7680 ng·h/mL | 1.67 mL/min/kg | 1.76 L/kg | 14.6 h | 6 h | 13500 ng·h/mL | 40 nM | 12 h
7 | COc1cc(C(=O)N2CCC[C@@H](N)C2)cc2nc(-c3cc4cc(C)sc4n3CC3CC3)n(C)c12 [Compound 23, (R)-(3-aminopiperidin-1-yl)(2-(6-(cyclopropylmethyl)-2-methyl-6H-thieno[2,3-b]pyrrol-5-yl)-7-methoxy-1-methyl-1H-benzo[d]imidazol-5-yl)methanone] | 31.2% | 887 ng·h/mL | 18 mL/min/kg | 11.6 L/kg | 7.9 h | 6 h | 1380 ng·h/mL | 25 nM | 7.52 h
